Experiments:
Format in all cases: cell-based
[1] = target: T1, Saccharomyces cerevisiae ScGal2 (Gal2) transporter, SEQ ID NO:32 (Saccharomyces cerevisiae, UniProt P13181); test: C14 labeled sugar uptake assay (zero-trans influx), SR8D8 expressing ScGal2; details: initial xylose uptake (20 s), 30° C., pH 6.5; cell wet weight; ± SEM
T1 construct: expressed in transfected cells; host or cells: S. cerevisiae SR8D8 (SR8 with HXT1-7 and GAL2 deleted), plasmid p42K-GPD1p-CYC1t
T1 sequence (P13181 1-574): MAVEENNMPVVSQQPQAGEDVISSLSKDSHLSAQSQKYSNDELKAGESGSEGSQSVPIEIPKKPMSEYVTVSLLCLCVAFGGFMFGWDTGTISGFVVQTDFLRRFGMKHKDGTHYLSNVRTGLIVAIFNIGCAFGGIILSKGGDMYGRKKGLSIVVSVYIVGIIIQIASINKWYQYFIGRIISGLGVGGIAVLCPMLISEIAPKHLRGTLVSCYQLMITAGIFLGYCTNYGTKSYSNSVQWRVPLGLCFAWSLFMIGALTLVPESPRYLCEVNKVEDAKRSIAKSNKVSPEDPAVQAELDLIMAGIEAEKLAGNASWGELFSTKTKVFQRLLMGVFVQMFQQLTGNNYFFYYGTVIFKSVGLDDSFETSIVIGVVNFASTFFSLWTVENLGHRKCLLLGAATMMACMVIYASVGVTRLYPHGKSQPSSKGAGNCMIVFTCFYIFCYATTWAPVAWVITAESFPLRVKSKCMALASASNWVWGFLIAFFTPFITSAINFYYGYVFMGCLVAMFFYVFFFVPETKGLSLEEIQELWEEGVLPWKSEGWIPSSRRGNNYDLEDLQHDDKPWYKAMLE
Method: (§1) FIG. 7A illustrates sugar uptake kinetics by SR8D8. FIG. 7B illustrates sugar uptake kinetics by SR8D8 expressing AtSWEET1. FIG. 7C illustrates sugar uptake kinetics by SR8D8 expressing ScGal2. FIG. 7D illustrates sugar uptake kinetics by SR8D8 expressing AtSWEET7. FIG. 7E illustrates sugar uptake kinetics by SR8D8 expressing LST1_205437. Initial xylose uptake (20 s) was measured at 30° C. over a concentration range of 1 to 500 mM xylose. FIG. 7F illustrates sugar uptake kinetics by SR8D8. FIG. 7G illustrates sugar uptake kinetics by SR8D8 expressing AtSWEET1. FIG. 7H illustrates sugar uptake kinetics by SR8D8 expressing ScGal2. FIG. 7I illustrates sugar uptake kinetics by SR8D8 expressing AtSWEET7. FIG. 7J illustrates sugar uptake kinetics by SR8D8 expressing LST1_205437. Initial glucose uptake (5 s) was measured at 30° C. over a concentration range of 0.2 to 100 mM glucose. Curve fitting for Michaelis-Menten kinetics was applied to data of three independent measurements at each concentration.
(§2) A xylose fermenting S. cerevisiae yeast (SR8) with HXT1-7Δ, GAL2Δ deletions was used for transporter screening and characterization (SR8D8). SR8D8 was grown in YPE medium/plate (10 g/L yeast extract, 20 g/L peptone, and 5 g/L ethanol). […] Biomass was calculated from the OD600 measured using a Biomate 5 UV-visible spectrophotometer (Fisher, NY, USA). All growth rates were measured using a Bioscreen C plate reader system (Growth Curves USA, Piscataway, NJ, USA). […]
(§3) SR8D8 containing the respective plasmid was grown on selective YPE medium to an OD600 of 1-1.5, harvested by centrifugation, and washed twice in ice-cold uptake buffer (100 mM potassium phosphate, pH 6.5). […] Radioactivity was analyzed in a Beckman-Coulter LS6500 multi-purpose liquid scintillation counter (Beckman-Coulter, CA, USA).
(§4) Uptake was measured at sugar concentrations 0.2, 1, 5, 25, and 100 mM for glucose and 1, 5, 25, 66, 100, 200, and 500 mM for xylose. Inhibition of xylose uptake by glucose was measured at 25, 66, and 100 mM xylose with additional 25 and 100 mM unlabeled glucose.

[2] = target: T2, Lipomyces starkeyi LST1_205437 transporter, wild type, SEQ ID NO: 4 (Lipomyces starkeyi, UniProt A0A1E3QE37); test: C14 labeled sugar uptake assay (zero-trans influx), SR8D8 expressing LST1_205437; details: initial xylose uptake (20 s), 30° C., pH 6.5
T2 construct: whole-cell 14C sugar uptake
T2 sequence (A0A1E3QE37 1-603): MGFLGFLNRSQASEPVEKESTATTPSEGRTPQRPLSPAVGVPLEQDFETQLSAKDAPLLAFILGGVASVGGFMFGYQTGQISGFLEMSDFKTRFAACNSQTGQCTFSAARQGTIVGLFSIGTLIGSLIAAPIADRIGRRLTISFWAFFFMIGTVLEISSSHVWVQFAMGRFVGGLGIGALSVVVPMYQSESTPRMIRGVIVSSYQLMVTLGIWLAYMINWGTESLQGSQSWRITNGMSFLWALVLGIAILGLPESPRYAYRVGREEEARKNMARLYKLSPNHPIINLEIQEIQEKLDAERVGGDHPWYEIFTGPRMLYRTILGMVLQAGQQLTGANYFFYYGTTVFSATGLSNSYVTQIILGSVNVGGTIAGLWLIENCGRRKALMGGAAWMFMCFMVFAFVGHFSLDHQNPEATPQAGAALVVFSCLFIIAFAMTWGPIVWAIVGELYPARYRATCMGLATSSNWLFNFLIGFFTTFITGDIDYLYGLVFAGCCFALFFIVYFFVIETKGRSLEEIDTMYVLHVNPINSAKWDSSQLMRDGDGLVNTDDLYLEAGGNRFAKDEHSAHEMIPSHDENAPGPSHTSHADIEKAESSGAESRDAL
Method: as §1, §2, §3, §4

[3] = target: T3, Arabidopsis thaliana AtSWEET7 transporter, wild type (Table 2: SEQ ID NO: 3; FIG. 12: SEQ ID NO:2) (Arabidopsis thaliana, UniProt Q8LBF7); test: C14 labeled sugar uptake assay (zero-trans influx), SR8D8 expressing AtSWEET7; details: initial xylose uptake (20 s), 30° C., pH 6.5; cell wet weight; ± SEM
T3 construct: expressed in transfected cells; host or cells: S. cerevisiae SR8D8 (SR8 with HXT1-7 and GAL2 deleted), plasmid p42K-GPD1p-CYC1t
T3 sequence (Q8LBF7 1-258): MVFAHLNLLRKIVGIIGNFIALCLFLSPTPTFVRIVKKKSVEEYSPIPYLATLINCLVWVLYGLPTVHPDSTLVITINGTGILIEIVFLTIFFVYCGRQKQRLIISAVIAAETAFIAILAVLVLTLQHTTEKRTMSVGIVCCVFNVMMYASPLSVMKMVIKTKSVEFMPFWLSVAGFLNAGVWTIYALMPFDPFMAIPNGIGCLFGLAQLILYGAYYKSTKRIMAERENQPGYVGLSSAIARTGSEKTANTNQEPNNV
Method: as §1, with “Curve fitting for Michaelis-Menten kinetics was applied to data of three independent measurements at each concentration.” left out
as §2, with “(SR8D8).” for “(SR8D8). SR8D8 was grown in YPE medium/plate (10 g/L yeast extract, 20 g/L peptone, and 5 g/L ethanol).”
(§5) Uptake was measured at sugar concentrations 0.2, 1, 5, 25, and 100 mM for glucose and 1, 5, 25, 66, 100, 200, and 500 mM for xylose. […]

[4] = target: T4, Arabidopsis thaliana AtSWEET1 transporter, wild type, SEQ ID NO: 1 (Arabidopsis thaliana, UniProt Q8L9J7); test: C14 labeled sugar uptake assay, SR8D8 expressing AtSWEET1; details: in words
T4 construct: whole-cell 14C sugar uptake
T4 sequence (Q8L9J7 1-247): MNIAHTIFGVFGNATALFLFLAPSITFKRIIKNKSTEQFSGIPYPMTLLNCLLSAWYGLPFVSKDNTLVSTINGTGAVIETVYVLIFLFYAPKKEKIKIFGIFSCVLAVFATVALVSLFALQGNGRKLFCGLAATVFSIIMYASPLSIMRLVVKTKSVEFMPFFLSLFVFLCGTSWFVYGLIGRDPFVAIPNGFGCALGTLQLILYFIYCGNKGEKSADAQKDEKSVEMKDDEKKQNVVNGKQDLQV
Method: as §1, with “Curve fitting for Michaelis-Menten kinetics was applied to data of three independent measurements at each concentration.” left out
as §2, with “(SR8D8).” for “(SR8D8). SR8D8 was grown in YPE medium/plate (10 g/L yeast extract, 20 g/L peptone, and 5 g/L ethanol).”
as §5

OC1OC[C@@H](O)[C@H](O)[C@H]1O (stereo partly drawn) [Xylose, D-xylose]
Vmax (xylose) [1]: 88.7 ± 10.0 nmol/min/mg | Vmax (xylose) [2]: 76.8 nmol/min/mg | Vmax (xylose) ([2]; cell wet weight, ± SEM): 76.8 ± 9.0 nmol/min/mg | Vmax (xylose) [3]: 100.9 ± 14.8 nmol/min/mg | xylose transport kinetics [4]: very poor xylose transport kinetics

Source: patent US12686846B2, “Plant sweet and yeast MSF transporter capable of transporting different sugars simultaneously” (THE BOARD OF TRUSTEES OF THE UNIVERSITY OF ILLINOIS, priority 2020, dated 2026)
